# Assay results: a melting point compilation (Tetko et al.; mined from patent text by program, amines drawn as free bases though some values may be those of a salt)
row,SMILES,melting point
1,COC(=O)[C@H]1NC(=O)[C@H]1NC(=O)Cc1cccs1 (relative stereo),133 to 136 °C
2,CC(=O)Nc1c(F)ccc2c1CCC(C)N2 (stereo not drawn),168 to 170 °C
3,COc1cc2c(cc1OC)C(C(S)(C#N)C(C)C(=O)O)=NCC2 (stereo not drawn),155 to 158 °C
4,Cc1ccc(C(=O)N[C@H](CSCC(=O)OC(C)(C)C)CC(C)C)s1,81 to 83 °C
5,CN1OC(c2ccc(Cl)cc2)CC1(Cn1ccnc1)c1ccco1 (stereo not drawn),99 to 101 °C
6,CCOP(=O)(Cc1cccc(CN2C(=O)c3ccccc3C2=O)c1)OCC,100 to 101 °C
7,O=C(O)c1ccccc1NCCCc1ccccc1,103 to 105 °C
8,COC(=O)Cc1ccc(C(C)=O)cc1,44 °C
9,N#CC1(c2cccc(OCc3ccc4ccc(F)cc4c3)c2)CCOCC1,106 to 107 °C
10,COc1ccc(Nc2nc(NCCNC(=O)OC(C)(C)C)nc(NC3CCCCCC3)n2)cc1Cl,94 °C
11,CN(C)C1(c2cccc(F)c2)CCC2(CC1)NCCc1c2[nH]c2ccccc12 (stereo not drawn),220 to 225 °C
12,COC(=O)C(F)=CC1C(C(=O)O)C1(C)C (stereo not drawn),89 °C
13,c1ccc(-c2nc(COc3cccc(CCCn4ccnc4)c3)co2)cc1,62 to 63 °C
14,N#CC1(Nc2ccccc2)CCN(C2c3ccccc3-c3ccccc32)CC1,165 °C
15,O=C(NN=Cc1ccccc1)c1ccc(O)cc1,226 °C
16,C(=C\c1nc(COc2cccc(CCCn3cncn3)c2)co1)/c1ccccc1,59 to 60 °C
17,CN1CCN(c2cc3ccccc3c(=O)[nH]2)CC1CO (stereo not drawn),173 to 174 °C
18,CC(C)c1oc(C=Cc2ccccc2)nc1CC(=O)O,155 to 156 °C
19,CCOC(=O)c1ccccc1NC(=O)CNc1ccccc1F,79 to 81 °C

row,SMILES,melting point
1,C[C@H]1C(=O)CCN1c1ccc(C#N)c2ccccc12,113 to 114 °C
2,Nc1nc2cc(OCC(=O)N3CCOCC3)ccc2c2c1nc1n2CCOC1,204 to 206 °C
3,CCN(Cc1ccccc1Oc1ccccc1)c1ccc(C(=O)O)cn1,170 to 172 °C
4,COc1ccc2c(c1)CCC1CCNC(=O)C(CC(C)N(Cc3ccccc3)C(C)C)=C21 (stereo not drawn),205 to 207 °C
5,Cn1c(=O)c2c(ncn2CCCC#N)n(C)c1=O,146 to 150 °C
6,CS(=O)(=O)N(c1cccc(C(=O)Nc2nccs2)c1)C1CN(C(c2ccc(Cl)cc2)c2ccc(Cl)cc2)C1,244 °C
7,COc1ccc(-c2c(C(C)=O)c(CSc3nccn3C)nc3cc(OC)c(OC)cc23)cc1OC,175 to 176 °C
8,COCC(COc1noc2ccc(Cl)cc12)NC=O (stereo not drawn),90 to 92 °C
9,O=C(O)c1cn2c3c(c(Cl)c(F)cc3c1=O)SCC2,322 to 324 °C
10,O=S(=O)(c1ccc(Cl)cc1)C(c1cc(F)ccc1F)c1cc(NCCOCCO)ncc1Cl (stereo not drawn),113 to 115 °C
11,COCCOc1ccc2c(c1)n(C1CCCCC1)c(=O)n2S(=O)(=O)c1ccc(C(=O)O)cc1OC,105 °C
12,CC(=O)O[C@H](CCc1ccc([N+](=O)[O-])cc1)C(=O)O,108 to 109 °C
13,O=C(O)Cc1ccc(Sc2ccc(Cl)cc2)cc1,135 to 140 °C
14,NC(=O)c1cc(-c2c[nH]nc2-c2ccc(F)cc2)ccn1,230 to 231 °C
15,CC(=NNC(N)=O)c1ccc(Nc2nccc(-c3cccnc3)n2)cc1,256 to 258 °C
16,CCCCN1CCC(CNC(=O)c2ccc(N)n3cc(CCC)nc23)CC1,172 °C
17,CCc1cccc(CC(=O)O)c1OCCCc1cc(OC(C)C)nn1Cc1ccc(Cl)cc1Cl,98 to 99 °C
18,Cc1ccc(F)cc1-c1noc(CCC#Cc2ccccn2)n1,90 to 91 °C
19,CS(=O)c1ccc(-c2nc3n(c2-c2ccncc2)CCC3)cc1 (stereo not drawn),164 to 166 °C

row,SMILES,melting point
1,CN[C@@H](CO)Cc1ccccc1,69 °C
2,Cc1ccccc1C(=O)Nc1ccc(C(=O)N2c3ccccc3CNc3ccccc32)cc1,68 to 71 °C
3,Cc1cccc2[nH]cnc12,141 to 145 °C
4,O=S(=O)(Cc1ccccc1)N1CCC[C@H]1C(=S)OCCCc1ccccc1,62 to 64 °C
5,CC(=O)N1[C@@H](c2ccc(F)cc2)SC(C)(C)[C@@H]1C(=O)O,144 to 146 °C
6,CC(C)c1nc(N)oc1-c1cccc2ccccc12,127 to 129 °C
7,CNCC1Cc2cc(Cl)cc(C3CCCCC3)c2O1 (stereo not drawn),125 to 128 °C
8,CCn1nc(Br)c([N+](=O)[O-])c1CCN,84.9 to 87.4 °C
9,COC(=O)Nc1nc2ccc(S(=O)c3ccccc3)cn2c1Br (stereo not drawn),150 to 152 °C
10,CC(=O)N[C@@H]1CC[C@@H](O)c2ccccc21 (relative stereo),120 to 127 °C
11,O=C(O)CC(Cc1ccccc1)NC(=O)C1Cc2ccccc2N1S(=O)(=O)c1ccc(-c2ccc(F)cc2)cc1 (stereo not drawn),87 to 90 °C
12,CC(C)CN1C(=O)COc2cc(F)c([N+](=O)[O-])cc21,108 to 110 °C
13,CCOC(=O)CNC(=O)c1cccc(Cl)c1,70 to 72 °C
14,NC1=NS(=O)N=C1NCCCOc1cccc(CN2CCCCC2)n1 (stereo not drawn),145 to 147 °C
15,Cc1ccc(S(=O)(=O)N2Cc3cscc3C2)cc1,125 to 127 °C
16,COC(=O)COC(=O)C(c1ccccc1)N1CCN(c2ccc(NC(=O)c3ccccc3-c3ccc(C(F)(F)F)cc3)cc2)CC1 (stereo not drawn),106 °C
17,CCOCc1cccc2[nH]c3cnc(C(=O)OCC)c(COC)c3c12,94 to 97 °C
18,CC(=O)Nc1c(C(=O)c2ccccc2)[nH]c2ccc(N)cc12,254 to 256 °C
19,Cc1ccc([C@@H](O)C=CC(C)(C)C)cc1,38 to 40 °C

# More lines, now with the values ahead:
row,melting point,SMILES
1,198 to 200 °C,O=c1c2cc(F)c(N3CCCC3)cc2n(CC2CC2)c(=O)n1OCc1ccccc1
2,74 to 76 °C,CC(C)CN(C(=O)N(CCCl)N=O)C1OC(OC2CCCCC2)C(O)C(O)C1O (stereo not drawn)
3,150 to 151 °C,CCCS(=O)(=O)Nc1ccc(C(=O)CC#N)cc1
4,136 to 140 °C,O=C(O)c1ccc(CBr)c(C(F)(F)F)c1
5,162 to 163 °C,CC(=O)NC(=O)c1cncc([N+](=O)[O-])c1
6,158 to 159 °C,CCCCc1nc(Cl)c(C(=O)OCC)n1Cc1ccc2oc(-c3ccccc3NS(=O)(=O)C(F)(F)F)c(Br)c2c1
7,163 to 164 °C,CC(=O)NC1CC(C)(C)N(OCc2cccc(C)c2)C(C)(C)C1
8,170 to 171 °C,Cc1ccc2c(c1)sc1ncc(C=O)n12
9,109 to 110 °C,Cc1ccccc1C(=NC#N)NC(NC(=O)Cc1ccc(Cl)cc1)C(C)(C)C (stereo not drawn)
10,83 to 85 °C,CC(C)C(C(=O)O)N(C)C(=O)OC(C)(C)C (stereo not drawn)
11,165 to 167 °C,NNc1cc2ccccc2[nH]1
12,102 °C,COC(=O)c1cc(Cl)cc(O)c1O
13,100 to 101 °C,CCCCCn1c(=O)c(-c2ccccc2)c2n(c1=O)CCCS2
14,250 to 251 °C,Nc1nc(N)nc(CNc2c(Br)cc(Br)cc2Br)n1
15,192 to 195 °C,CCONC(=O)c1nc(-c2ccc(Cl)c(OC)c2F)cc(N)c1Cl
16,221 to 222 °C,CNC(=S)NS(=O)(=O)c1cc2c(cc1OC)OCC(NC(=O)c1cc(F)ccc1OC)C2 (stereo not drawn)
17,224 to 225 °C,Cc1c(Cl)cccc1-n1c(=O)[nH]c2cccnc21
18,113 to 116 °C,CCOC(=O)C1=C(C)Nc2ccccc2N(C)C1c1cccc([N+](=O)[O-])c1 (stereo not drawn)
19,160 to 161 °C,Cc1csn(-c2ccc(Cl)c(Cl)c2)c1=O
20,150 to 151 °C,CCNC(=O)c1ccc2c(c1)Nc1ccccc1S2
21,177 to 178 °C,CC1(C)COC(=O)N1c1nc(-c2ccc(C#N)cc2)c(F)s1
22,95 to 97 °C,Cc1cc(F)ccc1-c1cccc(C(=O)Nc2ccc(OCCN3CCOCC3)c3ccccc23)c1
23,147 to 148 °C,O=C(O)CON=C(c1ccc(Cl)cc1)c1ccc(Cl)cc1

row,melting point,SMILES
1,235 °C,CC(=O)c1ccc(-c2ccc(C(C)=O)s2)s1
2,173 to 175 °C,CCOC(=O)C(=O)Nc1ccc2cccc([N+](=O)[O-])c2c1NC(=O)C(=O)OCC
3,181 to 183 °C,Cc1ccc(C(=O)n2c3c(c4ccccc42)C(C(=O)O)CCC3)cc1 (stereo not drawn)
4,120 to 121 °C,COc1ccccc1N1CCN(C(=O)c2ccccc2C(c2ccc(OC(C)C)cc2)c2ccc(OC(C)C)cc2)CC1
5,66 to 67 °C,COc1cc2c(cc1OC)=C(CCCl)OCC(C)(C)C=2
6,185 to 200 °C,Cc1oc(-c2ccccc2)nc1Cc1cc2cc(C=C3OC(=O)NC3=O)ccc2o1
7,176 °C,CN1COc2c(N3CC4CCOC4(CNC(=O)OC(C)(C)C)C3)c(F)cc3c(=O)c(C(=O)O)cn1c23 (stereo not drawn)
8,175 to 176 °C,Nc1ccccc1-c1[nH]ncc1[N+](=O)[O-]
9,149 to 151 °C,CCCCC1c2ccccc2-c2ccccc2N1S(=O)(=O)c1ccc(O)cc1 (stereo not drawn)
10,115 to 116 °C,COc1ccc(C(=O)c2ccc(Cl)cc2F)c(Cl)c1Cl
11,144 to 145 °C,NOCc1cn(C(c2ccccc2)(c2ccccc2)c2ccccc2)nn1
12,96 to 98 °C,CS(=O)(=O)NC1CCCOc2ccc([N+](=O)[O-])cc21 (stereo not drawn)
13,229 to 230 °C,CCCn1c(=O)c2c(nc(/C=C/c3ccc(OC(C)=O)c(OC(C)=O)c3)n2C)n(CCC)c1=O
14,244 to 245 °C,COC(=O)c1ncn2c1CN(C)C(=O)c1sccc1-2
15,103 to 105 °C,CCCNC(=O)N(Cc1ccc(Cl)cc1)C1CCCC1
16,152 to 153 °C,Cc1oc(-c2ccccc2)nc1CCOc1ccc(CCCC=C2OC(=O)NC2=O)cc1
17,160 to 161 °C,N#CCCn1nc(-c2ccccc2)c(-c2ccccc2)c(C#N)c1=O
18,247 °C,Cc1ccc2[nH]c(=S)c(C(=O)c3ccc([N+](=O)[O-])cc3)c(O)c2c1
19,217 to 219 °C,COc1cc(C=C(C#N)C(=O)Nc2cccc(Cl)c2)cc(Br)c1O
20,126 to 127 °C,COc1cccc(OC)c1C(=O)P(=O)(C(=O)c1c(C)cc(C)cc1C)c1ccccc1 (stereo not drawn)
21,196 to 197 °C,COc1cc(C(=O)c2cnc3ccccc3c2)ccc1O
22,259 to 262 °C,Cc1cc(C)c(-c2n[nH]c(=O)c3ccccc23)c(C)c1
23,68 to 69 °C,CC(C)(C)N(Cc1ccccc1)CC(O)c1ccc(OCc2ccccc2)c(N)c1 (stereo not drawn)
